According to PMC9931176, “Discovery of Diverse Natural Products as Inhibitors of SARS-CoV-2 M^pro Protease through Virtual Screening” (Journal of Chemical Information and Modeling, 2021):
Where “and” joins values, the source holds several entries; their conditions need not be identical. Equal values may be shown once. Read-outs that look alike come from different tables or passages of the source.

Target: recombinant SARS-CoV-2 Mpro (Severe acute respiratory syndrome coronavirus 2, UniProt P0DTD1)
Experiment: SARS-CoV-2 Mpro inhibition assay (FRET-based proteolytic activity assay)
Type: biochemical
Settings: for Ki: substrate concentration-independent inhibition constant; for inhibitory activity in the in vitro test: at concentrations below 125 μM
[1] = Ki, 0.2 μM enzyme, 20 μM substrate, compound 125 to 0 μM, 2.5% DMSO
[2] = 0.2 μM enzyme, 20 μM substrate, compound 125 to 0 μM, 2.5% DMSO, read-out: IC50
[3] = 0.2 μM enzyme, 20 μM substrate, compound 125 to 0 μM, 2.5% DMSO, read-out: Ki

Row | Compound | IC50 [µM] | Ki [1] | IC50 [2] [µM] | Ki [3] [µM] | inhibitory activity in the in vitro test
1 | C[C@@H]1O[C@@H](OC[C@H]2O[C@@H](Oc3cc(O)c4c(c3)O[C@H](c3ccc(O)cc3)CC4=O)[C@H](O)[C@@H](O)[C@@H]2O)[C@H](O)[C@H](O)[C@H]1O [narirutin] | > 125 | > 125 µM |  |  | 
2 | O=C1c2c(O)cccc2C([C@@H]2O[C@H](CO)[C@@H](O)[C@H](O)[C@H]2O)c2cc(CO)cc(O)c21 (some centres unmarked) [aloin] | 96 | 82 µM and 34 µM |  |  | 
3 | O=c1cc(-c2ccc(O)c(O)c2)oc2cc(O[C@@H]3O[C@H](CO)[C@@H](O)[C@H](O)[C@H]3O)cc(O)c12 [luteoloside] | > 125 | > 125 µM |  |  | 
4 | C[C@@H]1O[C@@H](O[C@H]2[C@H](Oc3cc(O)c4c(=O)cc(-c5ccc(O)cc5)oc4c3)O[C@H](CO)[C@@H](O)[C@@H]2O)[C@H](O)[C@H](O)[C@H]1O [rhoifolin] |  |  | 230 | 82 | 
5 | CC1CCC2(C(=O)OC3OC(CO)C(O)C(O)C3O)CCC3(C)C(=CCC4C5(C)CCC(OC6OCC(O)C(O)C6O)C(C)(C)C5CCC43C)C2C1(C)O (centres unmarked) [ziyu-glycoside I] | > 125 | > 125 µM |  |  | nonactive
6 | proanthocyanidins |  |  | > 125 | > 125 | nonactive
7 | O=C(O[C@@H]1O[C@@H]2COC(=O)c3cc(O)c(O)c(O)c3-c3c(cc(O)c(O)c3O)C(=O)O[C@H]([C@H]1O)[C@@H]2O)c1cc(O)c(O)c(O)c1 [corilagin] | > 125 | > 125 µM |  |  | 
8 | O=c1cc(-c2ccc(O)c(-c3c(O)cc(O)c4c(=O)cc(-c5ccc(O)cc5)oc34)c2)oc2cc(O)cc(O)c12 [amentoflavone] | 28 | 10 µM |  |  | 
9 | CC1OC(OC2C(c3c(O)cc(O)c4c(=O)cc(-c5ccc(O)cc5)oc34)OC(CO)C(O)C2O)C(O)C(O)C1O (centres unmarked) [vitexin-2-O-rhamnoside, vitexin-2-O-rhaMnoside] | 65 | 23 µM |  |  | 
10 | COc1ccc(-c2cc(=O)c3c(O)cc(O[C@@H]4O[C@H](CO[C@@H]5O[C@@H](C)[C@H](O)[C@@H](O)[C@H]5O)[C@@H](O)[C@H](O)[C@H]4O)cc3o2)cc1 [linarin] | > 125 | > 125 µM |  |  | lack of activity
